Measurements reported in US20250269018A1, “COMBINED CANCER THERAPY WITH AN EPITHELIAL CELL ADHESION MOLECULE (EPCAM) INHIBITOR AND A HEPATOCYTE GROWTH FACTOR RECEPTOR (HGFR) INHIBITOR” (ACADEMIA SINICA, priority 2021, published 2025).

System: GSK3β, active β-catenin and Snail
Assay: Western blotting of GSK3β, active β-catenin, Snail and EMT proteins in HCT116 cells
Assay type: cell-based, human
Conditions: HCT116
Experimental: FIGS. 4A to 4L. EpEX induces EMT and invasion by stabilizing β-catenin and Snail through decreasing GSK3β activity. (FIG. 4A) The protein expression of EMT markers and regulators was detected by Western blotting in Wild-type (WT) or EpCAM knockout (KO) HCT116 cells after EpEX treatment. (FIG. 4B) Cell invasion was examined by Transwell chamber assay with matrigel. (FIG. 4C) WT or KO HCT116 and HT29 cells were starved for 16 h, then treated with 0.5 nM of HGF with 2% FBS for 24 h. EMT-related protein expression (E-cadherin, vimentin, and Snail) was examined by Western blotting. (FIG. 4D) WT or KO HCT116 and HT29 cells were treated with HGF (0.5 nM) for 24 h. Invasion by HCT116 and HT29 cells was examined by Transwell chamber assay with matrigel. (FIG. 4E) HCT116 and HT29 cells were starved for 16 h, then treated with 0.5 nM of HGF with 2% FBS for 24 h. EMT-related protein expression (E-cadherin, Vimentin, and Snail) was examined by Western blotting. (FIG. 4F) HCT116 and HT29 cells were starved for 16 h, then treated with 0.5 nM of HGF with 2% FBS for 24 h. Cell invasion was assessed by a Transwell assay with matrigel. (FIG. 4G) HCT116 cells after shLuc and shHGFR treatment were treated with 50 nM of EpEX-His. HCT116 cells after shLuc and shHGFR treatment were treated with 50 nM of EpEX-His with 2% FBS for 24 h. EMT-related protein expression (E-cadherin, Vimentin, and Snail) was examined by Western blotting. (FIG. 4H) Cell invasion was examined by Transwell chamber assay with matrigel. (FIG. 4I) Starved HCT116 cells were treated SU (10 μM) for 1 h, followed by treatment with EpEX-His (50 nM) for 24 h. Phosphorylated GSK3β, active-β-catenin, and Snail were detected by Western blotting. (FIG. 4J) HCT116 cells were starved for 16 h, then treated with 50 nM EpEX-His for 24 min. AKT inhibitor LY294002 (25 μM), ERK inhibitor U0126 (20 μM), or PF-562271 (10 μM) were applied 1 h before EpEX treatment. Protein expression of phosphorylated GSK3β and Snail was examined by Western blotting. (FIG. 4K) HCT116 cells were starved for 16 h, then treated with 50 nM EpEX, and SU (10 μM), LY (25 μM), UO (20 μM) or PF (10 μM). Cell invasion was examined by Transwell chamber assay with matrigel. (FIG. 4L) Protein expression was analyzed by Western blotting in EpEX-His (50 nM) treated HCT116 cells after treatment with or without 2 μM GSK3β inhibitor (BIO) for 24 h. Quantification of the normalized protein expression in the right panel.
FIGS. 5A to 5I. EpEX promotes Snail protein stability through inhibition of ubiquitination-mediated proteasomal degradation. (FIG. 5A) The gene expression of EMT markers and regulators was detected by qRT-PCR in Wild-type (WT) or EpCAM knockout (KO) of HCT116 and HT29 cells. (FIG. 5B) Stability of Snail protein in WT or KO of HCT116 cells. Cells were treated with cyclohexamide (CHX) 100 μg/ml at the indicated intervals and subjected to Western blotting. (FIG. 5C) The protein expression of Snail was analyzed in WT or KO HCT116 cells by treating with or without […] MG132 (proteasome inhibitor) for 6 h, followed by Western blotting. (FIG. 5D) WT or KO HCT116 cells were treated with 10 μM MG132 for 6 h before cell collection. The lysates were subjected to immunoprecipitation using anti-Snail antibody and input. Western blotting was performed with the indicated antibodies to detect ubiquitinated Snail protein. (FIG. 5E) Stability of Snail protein in HCT116 cells after EpEX (50 nM) treatment for 24 h. Cells were treated with cyclohexamide (CHX; 100 μg/ml) for the indicated intervals and then subjected to Western blotting. (FIG. 5F) Expression of the gene encoding SNAIL was detected by qRT-PCR in HCT116 cells after EpEX (50 nM) treatment for 24 h. (FIG. 5G) The protein expression of Snail in HCT116 was analyzed cells by Western blotting after EpEX (50 nM) treatment for 24 h, and treatment with or without 10 μM MG132 (proteasome inhibitor) for 6 h. […]

[1] = LY294002 25 μM, U0126 20 μM or PF-562271 10 μM 1 h before 50 nM EpEX-His for 24 min, FIG. 4J
[2] = SU 10 μM 1 h, then EpEX-His 50 nM 24 h, FIG. 4I

| Structure (SMILES) | EpEX-mediated GSK3β activity [1] | EpEX-mediated Snail protein expression [1] | EpEX-induced active β-catenin and Snail protein expression [2] | EpEX-mediated GSK3β activity [2] |
| --- | --- | --- | --- | --- |
| CN(c1ncccc1CNc1nc(Nc2ccc3c(c2)CC(=O)N3)ncc1C(F)(F)F)S(C)(=O)=O [PF-562271] | attenuate EpEX-mediated GSK3β activity | attenuate |  |  |
| Cc1[nH]c(C=C2C(=O)Nc3ccc(S(=O)(=O)N(C)c4cccc(Cl)c4)cc32)c(C)c1C(=O)N1CCN(C)CC1 (stereo in doubt) [SU11274, (3Z)-N-(3-Chlorophenyl)-3-({3,5-dimethyl-4-[(4-methylpiperazin-1-yl)carbonyl]-1H-pyrrol-2-yl}methylene)-N-methyl-2-oxo-2,3-dihydro-1H-indole-5-sulfonamide] |  |  | abolish EpEX-induced active β-catenin and Snail protein expression | attenuate EpEX-mediated GSK3β activity |
| N#CC(=C(/N)Sc1ccccc1N)/C(C#N)=C(\N)Sc1ccccc1N [U0126] | attenuate EpEX-mediated GSK3β activity | attenuate |  |  |
